Experimental data reported in ChEMBL document CHEMBL1268886, “Evaluation of amide replacements in CCR5 antagonists as a means to increase intrinsic permeability. Part 2: SAR optimization and pharmacokinetic profile of a homologous azacyle series” (Bioorg Med Chem Lett, 2010).

How the values were obtained:
[1] = tested on: Human immunodeficiency virus; assay: Antiviral activity against HIV; format: functional, organism-based
[2] = biological target: C-C chemokine receptor type 5 (Homo sapiens, UniProt P51681); assay: Inhibition of RANTES
[3] = (§1) Apparent permeability of the compound from apical to basolateral side in human Caco-2 cell membrane after 21 days; details: Caco-2, Papp
[4] = tested on: Caco-2; assay: as §1; details: caco-2
[5] = Half life in rat at 1 mg/kg, iv; format: ADME, organism-based; parameters: dose 1 mg/kg, route intravenous; details: in vivo
[6] = Oral bioavailability in dog at 5 mg/kg, po and 1 mg/kg, iv; format: ADME, organism-based, Canis lupus familiaris; details: in vivo
[7] = Metabolic stability in dog liver microsomes assessed as intrinsic clearance; format: ADME, Canis lupus familiaris, Microsome
[8] = Cmax in dog at 5 mg/kg, po and 1 mg/kg, iv; format: ADME, organism-based, Canis lupus familiaris; details: in vivo
[9] = biological target: Voltage-gated inwardly rectifying potassium channel KCNH2 (Homo sapiens, UniProt Q12809); assay: Inhibition of human ERG
[10] = Metabolic stability in human liver microsomes assessed as intrinsic clearance; format: ADME, Microsome
[11] = Half life in dog at 1 mg/kg, iv; format: ADME, organism-based, Canis lupus familiaris; parameters: dose 1 mg/kg, route intravenous; details: in vivo
[12] = Cmax in rat at 10 mg/kg, po and 1 mg/kg, iv; format: ADME, organism-based; details: in vivo
[13] = Clearance in dog at 5 mg/kg, po and 1 mg/kg, iv; format: ADME, organism-based, Canis lupus familiaris; details: in vivo
[14] = Oral bioavailability in rat at 10 mg/kg, po and 1 mg/kg, iv; format: ADME, organism-based; details: in vivo
[15] = tested on: Rattus norvegicus; assay: Clearance in rat at 10 mg/kg, po and 1 mg/kg, iv; format: ADME, organism-based; details: in vivo
[16] = Metabolic stability in rat liver microsomes assessed as intrinsic clearance; format: ADME, Microsome

C-C chemokine receptor type 5, sequence (P51681 whole entry): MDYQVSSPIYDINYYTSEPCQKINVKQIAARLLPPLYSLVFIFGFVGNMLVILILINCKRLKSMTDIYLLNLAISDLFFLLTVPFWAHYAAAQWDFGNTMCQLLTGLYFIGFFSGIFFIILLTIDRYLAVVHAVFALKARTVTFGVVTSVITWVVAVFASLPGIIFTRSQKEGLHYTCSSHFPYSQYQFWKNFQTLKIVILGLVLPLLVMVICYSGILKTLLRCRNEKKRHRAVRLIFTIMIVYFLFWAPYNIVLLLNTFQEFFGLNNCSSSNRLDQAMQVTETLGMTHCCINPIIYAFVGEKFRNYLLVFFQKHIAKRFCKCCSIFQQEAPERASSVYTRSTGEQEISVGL
Voltage-gated inwardly rectifying potassium channel KCNH2, sequence (Q12809 whole entry): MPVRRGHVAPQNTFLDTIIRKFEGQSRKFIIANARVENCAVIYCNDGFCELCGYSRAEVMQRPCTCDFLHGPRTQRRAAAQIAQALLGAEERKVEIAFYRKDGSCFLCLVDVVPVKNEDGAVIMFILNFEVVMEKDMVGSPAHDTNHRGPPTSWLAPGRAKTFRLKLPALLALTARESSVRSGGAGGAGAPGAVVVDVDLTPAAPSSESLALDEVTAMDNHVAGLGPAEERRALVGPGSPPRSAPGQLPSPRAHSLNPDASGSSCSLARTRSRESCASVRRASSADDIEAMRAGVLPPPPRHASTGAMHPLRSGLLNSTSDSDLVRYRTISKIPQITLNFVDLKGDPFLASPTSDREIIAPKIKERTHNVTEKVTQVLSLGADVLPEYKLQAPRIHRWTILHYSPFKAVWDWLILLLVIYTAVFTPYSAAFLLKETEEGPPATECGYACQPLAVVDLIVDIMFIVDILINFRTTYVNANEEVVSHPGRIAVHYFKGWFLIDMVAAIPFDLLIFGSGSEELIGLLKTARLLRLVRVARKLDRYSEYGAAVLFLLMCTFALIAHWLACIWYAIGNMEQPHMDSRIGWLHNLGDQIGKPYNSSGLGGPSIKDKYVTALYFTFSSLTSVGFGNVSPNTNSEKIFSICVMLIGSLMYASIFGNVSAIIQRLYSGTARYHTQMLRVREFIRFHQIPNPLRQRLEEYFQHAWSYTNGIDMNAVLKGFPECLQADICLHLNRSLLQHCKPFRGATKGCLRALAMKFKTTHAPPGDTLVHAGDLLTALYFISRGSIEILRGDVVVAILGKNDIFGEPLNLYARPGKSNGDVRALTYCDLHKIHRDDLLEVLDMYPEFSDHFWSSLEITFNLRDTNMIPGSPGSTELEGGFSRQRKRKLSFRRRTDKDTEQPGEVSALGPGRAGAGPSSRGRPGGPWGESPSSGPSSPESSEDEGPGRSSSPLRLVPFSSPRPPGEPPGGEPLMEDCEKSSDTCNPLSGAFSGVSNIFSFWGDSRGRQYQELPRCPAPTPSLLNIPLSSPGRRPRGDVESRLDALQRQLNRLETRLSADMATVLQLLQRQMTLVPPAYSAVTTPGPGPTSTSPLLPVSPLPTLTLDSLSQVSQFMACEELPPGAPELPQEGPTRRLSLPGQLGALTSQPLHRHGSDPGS

| IC50 ([1]; Human immunodeficiency virus 1) [µM] | IC50 [2] [µM] | SMILES | further results |
| --- | --- | --- | --- |
| 0.207 | 0.048 | Cc1ncnc(C)c1C(=O)N1C[C@H]2CN(CCC(c3ccccc3)C3CCN(S(=O)(=O)CC(F)(F)F)CC3)C[C@H]2C1 (stereo not given in full) |  |
| 0.059 | 0.023 | Cc1ncnc(C)c1C(=O)N1C[C@H]2CN(CCC(c3ccccc3)C3CCN(S(=O)(=O)C4CCCC4)CC3)C[C@H]2C1 (stereo not given in full) |  |
| 0.006 | 0.038 | Cc1ncnc(C)c1C(=O)N1C[C@H]2CN(CCC(c3cccc(F)c3)C3CCN(S(=O)(=O)c4ccccc4)CC3)C[C@H]2C1 (stereo not given in full) |  |
|  | 0.207 | Cc1ncnc(C)c1C(=O)N1C[C@H]2CN(CCC(c3ccccc3)C3CN(C(=O)C4CCCC4)C3)C[C@H]2C1 (stereo not given in full) |  |
|  | > 0.5 | Cc1ncnc(C)c1C(=O)N1C[C@H]2CN(CCC(c3ccccc3)C3CN(C(=O)CC(C)C)C3)C[C@H]2C1 (stereo not given in full) |  |
| 0.1 | 0.023 | Cc1ncnc(C)c1C(=O)N1C[C@H]2CN(CCC(c3ccccc3)C3CN(S(=O)(=O)C(C)C)C3)C[C@H]2C1 (stereo not given in full) |  |
| 0.103 | 0.04 | Cc1ncnc(C)c1C(=O)N1C[C@H]2CN(CCC(c3ccccc3)C3CN(S(=O)(=O)C4CC4)C3)C[C@H]2C1 (stereo not given in full) |  |
| 0.156 | 0.039 | Cc1ncnc(C)c1C(=O)N1C[C@H]2CN(CCC(c3cccc(F)c3)C3CN(S(=O)(=O)C4CC4)C3)C[C@H]2C1 (stereo not given in full) |  |
|  | > 0.5 | Cc1ncnc(C)c1C(=O)N1C[C@H]2CN(CCC(c3ccccc3)C3CCN(C(=O)NC(C)C)CC3)C[C@H]2C1 (stereo not given in full) |  |
| 0.09 | 0.035 | Cc1ncnc(C)c1C(=O)N1C[C@H]2CN(CCC(c3cc(F)cc(F)c3)C3CN(S(=O)(=O)C4CC4)C3)C[C@H]2C1 (stereo not given in full) |  |
| 0.064 | 0.017 | Cc1ncnc(C)c1C(=O)N1C[C@H]2CN(CCC(c3ccccc3)C3CCN(CC(F)(F)F)CC3)C[C@H]2C1 (stereo not given in full) |  |
| > 0.625 | 0.052 | Cc1ncnc(C)c1C(=O)N1C[C@H]2CN(CCC(c3ccccc3)C3CN(S(C)(=O)=O)C3)C[C@H]2C1 (stereo not given in full) |  |
| 0.055 | 0.027 | Cc1ncnc(C)c1C(=O)N1C[C@H]2CN(CCC(c3ccccc3)C3CCN(CC(F)F)CC3)C[C@H]2C1 (stereo not given in full) |  |
| 0.031 | 0.022 | Cc1ncnc(C)c1C(=O)N1C[C@H]2CN(CCC(c3ccccc3)C3CN(S(=O)(=O)C4CCCC4)C3)C[C@H]2C1 (stereo not given in full) | Papp A→B [3]: 14 nm/s |
| 0.014 | 0.035 | Cc1ncnc(C)c1C(=O)N1C[C@H]2CN(CCC(c3cccc(F)c3)C3CCN(CC(F)F)CC3)C[C@H]2C1 (stereo not given in full) |  |
| 0.071 | 0.027 | Cc1ncnc(C)c1C(=O)N1C[C@H]2CN(CCC(c3ccccc3)C3CCN(S(=O)(=O)C4CC4)CC3)C[C@H]2C1 (stereo not given in full) |  |

| IC50 ([1]; Human immunodeficiency virus 1) [µM] | IC50 [2] [µM] | SMILES | further results |
| --- | --- | --- | --- |
| 0.02 | 0.025 | Cc1ncnc(C)c1C(=O)N1C[C@H]2CN(CCC(c3cc(F)cc(F)c3)C3CCN(CC(F)F)CC3)C[C@H]2C1 (stereo not given in full) |  |
| 0.039 | 0.025 | CCS(=O)(=O)N1CCC(C(CCN2C[C@@H]3CN(C(=O)c4c(C)ncnc4C)C[C@@H]3C2)c2ccccc2)CC1 (stereo not given in full) |  |
|  | 0.102 | COC(=O)N1CCC(C(CCN2C[C@@H]3CN(C(=O)c4c(C)ncnc4C)C[C@@H]3C2)c2ccccc2)CC1 (stereo not given in full) |  |
| 0.048 | 0.047 | Cc1ncnc(C)c1C(=O)N1C[C@H]2CN(CCC(c3ccccc3)C3CCN(S(=O)(=O)C(C)C)CC3)C[C@H]2C1 (stereo not given in full) |  |
|  | 0.032 | CCC(=O)N1CCC(C(CCN2C[C@@H]3CN(C(=O)c4c(C)ncnc4C)C[C@@H]3C2)c2ccccc2)CC1 (stereo not given in full) |  |
| 0.037 | 0.027 | Cc1cc(=O)oc(C)c1C(=O)N1C[C@H]2CN(CCC(c3ccccc3)C3CCN(S(C)(=O)=O)CC3)C[C@H]2C1 (stereo not given in full) |  |
|  | 0.072 | Cc1ncnc(C)c1C(=O)N1C[C@H]2CN(CCC(c3ccccc3)C3CCN(C(=O)C(C)C)CC3)C[C@H]2C1 (stereo not given in full) |  |
| 0.004 |  | Cc1cc(C#N)nc(C)c1C(=O)N1C[C@H]2CN(CCC(c3ccccc3)C3CCN(S(C)(=O)=O)CC3)C[C@H]2C1 (stereo not given in full) |  |
|  | 0.068 | Cc1ncnc(C)c1C(=O)N1C[C@H]2CN(CCC(c3ccccc3)C3CCN(C(=O)CC(C)C)CC3)C[C@H]2C1 (stereo not given in full) |  |
|  | > 0.5 | Cc1ncnc(C)c1C(=O)N1C[C@H]2CN(CCC(c3ccccc3)C3CN(CC(F)(F)F)C3)C[C@H]2C1 (stereo not given in full) |  |
|  | 0.034 | Cc1ncnc(C)c1C(=O)N1C[C@H]2CN(CCC(c3ccccc3)C3CCN(S(C)(=O)=O)CC3)C[C@H]2C1 (stereo in doubt; 34) | Papp A→B [3]: 8.7 nm/s; IC50 [1]: 0.043 µM |
| 0.016 | 0.044 | Cc1ncnc(C)c1C(=O)N1C[C@H]2CN(CCC(c3cccc(F)c3)C3CCN(S(C)(=O)=O)CC3)C[C@H]2C1 (stereo in doubt; 35) |  |
|  | 0.025 | Cc1ncnc(C)c1C(=O)N1C[C@H]2CN(CCC(c3ccccc3)C3CCN(S(C)(=O)=O)CC3)C[C@H]2C1 (stereo in doubt; 41) | Papp [4]: 5 nm/s; IC50 [1]: 0.042 µM |
|  | > 0.5 | Cc1ncnc(C)c1C(=O)N1C[C@H]2CN(CCC(c3ccccc3)C3CCN(S(C)(=O)=O)CC3)C[C@H]2C1 (stereo in doubt; 42) | IC50 [1]: > 5 µM |
|  | 0.032 | Cc1ncnc(C)c1C(=O)N1C[C@H]2CN(CCC(c3cccc(F)c3)C3CCN(S(C)(=O)=O)CC3)C[C@H]2C1 (stereo in doubt; 43) | half-life [5]: 0.37 h; bioavailability [6]: 96%; Papp A→B [3]: 5 nm/s; clearance [7]: 18 µL/min/mg; Cmax [8]: 1.3 µg/mL; IC20 [9]: 15.4 µM; microsomal CLint [10]: 60 µL/min/mg; IC50 [1]: 0.017 µM; half-life [11]: 4 h; Cmax [12]: 0.11 µg/mL; clearance [13]: 1.86 L/h/kg; bioavailability [14]: 6.6%; clearance [15]: 2.4 L/h/kg; microsomal CLint [16]: 40 µL/min/mg |
|  | > 0.5 | Cc1ncnc(C)c1C(=O)N1C[C@H]2CN(CCC(c3cccc(F)c3)C3CCN(S(C)(=O)=O)CC3)C[C@H]2C1 (stereo in doubt; 44) |  |
